Results: US20130023535A1, “METHOD OF PREVENTING AND/OR TREATING DIABETIC NEUROPATHY” (Astellas Pharma Inc., priority 2007, published 2013)
pIC50: −log10 of the molar value. Where two headings read alike, the source gives them in different places.

How the values were obtained:
[1] = system: STZ (streptozotocin)-induced diabetic rats; conditions: vs vehicle group
Procedure: STZ (streptozotocin)-induced diabetic rats were prepared according to the following procedure. STZ (45 mg/kg) was intravenously administered to rats at the age of 7 weeks. At week 2 after administration of STZ, the blood was collected from the tail vein and the blood glucose level was measured to confirm that the blood glucose level was increased to 300 mg/dl or more. In the administration group, the rats were grouped so as to minimize the variation in the mean values of body weight, blood glucose level and pain response threshold measured on the previous day of the administration of the drug. A non-administration group of STZ was separately prepared and used as Normal group. A test drug was orally administered once daily for 28 consecutive days. Paresthesia due to neuropathy was determined by a von Frey Test (pain threshold test) at two time points, at 1 hour after administration on day 28 and on day 7 of cessation of the drug after the last administration (Pain, vol. 53, pp. 81-88, 1993). The test was initiated after the rats were placed in a cage for observation and acclimated for at least 20 minutes. By using a digital von Frey Test model 2390 (manufactured by IITC Inc.), a tip end was lightly applied to a paw. When there was no response, an applied load was increased from 1 to 3 g. The pain threshold was determined as an applied load (g) at which an avoidance response such as paw withdrawal was observed. In each animal, the measurement was performed twice for each of the left and right paws, and the mean of the 4 values was calculated as a withdrawal threshold (g). The improvement of paresthesia was determined based on the recovery of the withdrawal threshold in a drug administration group as compared with a vehicle (distilled water) administration group. Statistical test was performed between the vehicle administration group and the drug administration groups. For confirming the onset of diabetic neuropathy, a Student's t-test was also performed to compare the vehicle administration group and the Normal group.

[2] = system: insulin-like growth factor 1 (IGF-1); experiment: Quantitative PCR of neurotrophic factor expression, dorsal root ganglia of STZ-induced diabetic rats; format: in vivo, rat; conditions: 30 mg/kg
Procedure: (§1) In order to verify whether (+)-2-[(1H-inden-7-yloxy)methyl]morpholine hydrochloride acts on the expression levels of neurotrophic factors, an improving effect of (+)-2-[(inden-7-yloxy)methyl]morpholine hydrochloride on a decrease in the expression levels of neurotrophic factors in the spinal cord and the dorsal root ganglia of STZ-induced diabetic rats was examined.
(§2) The expression levels of neurotrophic factors were measured in the animals on day 7 to 8 of cessation of the drug withdrawal after the repeated daily administration in each of the Normal group, the vehicle administration group (STZ-induced diabetic rats) and the drug administration group at a dose of 30 mg/kg (STZ-induced diabetic rats) in Example 2. The spinal cord lumbar region and the dorsal root ganglia (L4, L5, and L6) were excised and the total RNA was extracted from the excised specimens using an RNA extraction kit RNeasy (Qiagen). […] A quantitative PCR analysis was performed for the obtained cDNA using primers to fibroblast growth factor 2 (FGF-2), insulin-like growth factor 1 (IGF-1), and glyceraldehyde-3-phosphate dehydrogenase (G3PDH) by PRISM 7900 (ABI). […] The improving effect on a decrease in the expression levels of neurotrophic factors were determined based on the recovery on the expression levels of neurotrophic factors in the drug administration group as compared with the vehicle administration group. […]

[3] = system: STZ-induced diabetic rats; experiment: Motor nerve conduction velocity (MNCV) in STZ-induced diabetic rats; format: in vivo, rat; conditions: 30 mg/kg
Procedure: The measurement was performed using the method of Cameron et al. (The Journal of Experimental Physiology, vol. 74, pp. 917-926, 1989) with some modification.
1 were used. Further, the same test was performed also for the Normal group. The rats were anesthetized with sodium pentobarbital, and the temperature of the rectum was maintained at about 37.5° C. using a body temperature maintenance device for small animals, and then, the MNCV was measured using an evoked potential measurement device. First, a positive stimulating electrode was attached to a dorsal region. […] Then, an average waveform evoked by the stimulation was derived from bipolar recording electrodes inserted into a gastrocnemius muscle region of the hind limb of the same side, and the latency (sec) from the start of stimulation to the first deflection of an M-wave was measured. Thereafter, the tibial nerve around behind the knee was stimulated with a negative stimulating electrode in the same manner as above, and the latency (sec) was measured in the same manner as in the gastrocnemius muscle region. A value obtained by dividing a distance (m) between the two regions stimulated with the negative stimulating electrode by a difference (sec) in the M-wave latency measured in the above two stimulation experiments was determined to be an MNCV value. […]

[4] = target: T1, Cytochrome P-450 (1A2) (Homo sapiens, UniProt P05177); experiment: Test for Cytochrome P-450 (1A2) enzyme inhibition using human liver microsomes; format: in vitro ADME
T1 construct: 0.2 mg protein/mL human liver microsomes; from tissue; host or cells: human liver microsomes
T1 sequence (P05177 1-516): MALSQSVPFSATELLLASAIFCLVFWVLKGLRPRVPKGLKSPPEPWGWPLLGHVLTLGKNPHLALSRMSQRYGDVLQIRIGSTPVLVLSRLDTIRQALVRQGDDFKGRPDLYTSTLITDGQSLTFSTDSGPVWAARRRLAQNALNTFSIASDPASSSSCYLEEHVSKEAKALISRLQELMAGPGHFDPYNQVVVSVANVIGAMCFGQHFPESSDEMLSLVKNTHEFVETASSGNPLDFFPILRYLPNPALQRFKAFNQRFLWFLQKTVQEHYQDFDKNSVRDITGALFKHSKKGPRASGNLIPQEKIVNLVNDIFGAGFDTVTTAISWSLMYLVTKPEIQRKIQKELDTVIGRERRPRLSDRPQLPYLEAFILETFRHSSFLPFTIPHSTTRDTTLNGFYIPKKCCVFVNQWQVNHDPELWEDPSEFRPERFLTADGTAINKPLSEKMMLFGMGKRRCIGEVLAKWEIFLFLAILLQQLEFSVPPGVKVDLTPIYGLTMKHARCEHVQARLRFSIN
Procedure: An experiment was performed according to the method of Rae Yuan et al. (Drug Metabolism and Disposition, 30(12), 1311-1319, 2002).
By using a 96-well plate, a test drug (0.3 to 10 μmol/L) was added to 100 mmol/L Na-K phosphate buffer (pH=7.4) containing 0.1 mmol/L ethylenediaminetetraacetic acid (EDTA), 1 mmol/L nicotinamide adenine dinucleotide phosphate (NADPH), and 0.2 mg protein/mL human liver microsomes, and the total volume was made up to 145 μL, and then, preincubation of the resulting mixture was started at 37° C. At 5 minutes after the start of preincubation, phenacetin (20 mmol/L) was added thereto as a substrate for P450(1A2), and the total volume was made up to 150 μL, and then, the resulting mixture was incubated at 37° C. for 20 minutes. Thereafter, 130 μL of acetonitrile was added to the sample to stop the reaction. For the sample in which the reaction was stopped, the concentration of acetaminophen which is a metabolite of phenacetin was determined using LC/MS/MS.
A production amount of acetaminophen in the absence of the test drug was taken as 100%, and a production amount of acetaminophen in the presence of the test drug was calculated for each concentration of the test drug. Based on the calculated production amount for each concentration of the test drug, a concentration of the test drug at which the production amount of acetaminophen was 50% (IC50 value) was calculated from the following equation. The test was performed for two cases, and a mean value was used for the calculation of each value.
Production amount [I] (%)=100/(1+[I]/IC50)
Production amount [I] (%): (Production amount of acetaminophen when the test compound concentration was [I])/(Production amount of acetaminophen in the absence of test compound)×100

[5] = system: fibroblast growth factor 2 (FGF-2); experiment: Quantitative PCR of neurotrophic factor expression, spinal cord lumbar region of STZ-induced diabetic rats; format: in vivo, rat; conditions: 30 mg/kg
Procedure: as §1, §2

[6] = 30 mg/kg orally once daily for 28 days, measured on day 7 of cessation of drug
[7] = 30 mg/kg orally once daily, day 28 of repeated administration, 1 hour after administration

Row | SMILES | effect on the decrease in the withdrawal threshold (von Frey test) [1, 6] | effect on the decrease in the withdrawal threshold (von Frey test) [1, 7] | effect on the decrease in the expression level of IGF-1 [2] | relative gene expression level of IGF-1 normalized by G3PDH ([2]; p.o., day 7 to 8 of cessation, mean ± SEM, Normal 100.0, Vehicle 54.6) | MNCV ([3]; p.o., day 7 to 8 of drug withdrawal after repeated daily administration, mean ± SEM, Normal 62.4, Vehicle 49.4) | improving effect on a decrease in MNCV ([3]; vs vehicle group) | CYP inhibitory activity [4] | possibility of drug-drug interaction by oral administration ([4]; from difference between IC50 and Cmax at oral administration) | pIC50 ([4]; human liver microsomes, substrate phenacetin, acetaminophen production, mean of two cases) | effect on the decrease in the expression level of FGF-2 [5] | relative gene expression level of FGF-2 normalized by G3PDH ([5]; p.o., day 7 to 8 of cessation, mean ± SEM, Normal 100.0, Vehicle 66.9)
1 | C1=Cc2cccc(OCC3CNCCO3)c2C1.Cl (racemic) [(±)-2-[(inden-7-yloxy)methyl]morpholine hydrochloride] | significantly restored the decrease in the withdrawal threshold | significantly restored the decrease in the withdrawal threshold | – | – | – | – | – | – | – | – | –
2 | C1=Cc2cccc(OCC3CNCCO3)c2C1.Cl (single isomer, unassigned; (+)) [(+)IDX, (+)-2-[(1H-inden-7-yloxy)methyl]morpholine hydrochloride] | significantly restored the decrease in the withdrawal threshold | significantly restored the decrease in the withdrawal threshold | significantly recovers the decrease in the expression levels | 67.7 ± 3.2 | 53.3 ± 1.1 m/s | significant improving effect | extremely weak | extremely low | 5.09 | significantly recovers the decrease in the expression levels | 103.5 ± 4.9
